Measurements from ChEMBL document CHEMBL3431459, “Roche carnitine palmitoyltransferase modulator screening data (supplementary data associated with the publication CHEMBL2216752)”.
Values after ≈ are worked out from the molar mass of the structure shown.

Assays:
[1] = molecular target: T1, Carnitine O-palmitoyltransferase 1, muscle isoform (Homo sapiens, UniProt Q92523); test: SUPPLEMENTARY: Inhibition of Carnitine palmitoyltransferase 1, muscle isoform; set-up: species or system Muscle tissue
T1 sequence (Q92523 whole entry): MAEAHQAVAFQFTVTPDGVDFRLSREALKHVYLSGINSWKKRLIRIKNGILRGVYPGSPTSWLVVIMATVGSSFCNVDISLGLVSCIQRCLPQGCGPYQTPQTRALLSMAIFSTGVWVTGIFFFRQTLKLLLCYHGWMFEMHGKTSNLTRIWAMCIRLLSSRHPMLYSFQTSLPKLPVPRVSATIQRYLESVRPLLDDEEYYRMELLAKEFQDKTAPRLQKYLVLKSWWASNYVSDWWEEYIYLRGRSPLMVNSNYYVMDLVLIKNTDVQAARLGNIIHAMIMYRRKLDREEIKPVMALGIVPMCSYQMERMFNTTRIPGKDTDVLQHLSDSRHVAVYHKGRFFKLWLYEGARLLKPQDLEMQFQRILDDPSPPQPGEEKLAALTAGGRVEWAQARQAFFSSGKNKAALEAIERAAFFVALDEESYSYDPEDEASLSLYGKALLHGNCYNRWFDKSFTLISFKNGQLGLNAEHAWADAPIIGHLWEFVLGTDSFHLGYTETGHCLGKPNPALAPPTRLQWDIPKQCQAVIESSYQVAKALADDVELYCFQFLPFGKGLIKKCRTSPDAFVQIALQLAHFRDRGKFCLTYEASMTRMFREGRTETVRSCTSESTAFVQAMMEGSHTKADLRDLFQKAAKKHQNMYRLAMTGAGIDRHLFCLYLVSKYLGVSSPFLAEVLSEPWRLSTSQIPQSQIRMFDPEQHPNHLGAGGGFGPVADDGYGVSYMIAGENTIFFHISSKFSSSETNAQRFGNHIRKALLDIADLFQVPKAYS

[2] = molecular target: T2, Carnitine O-palmitoyltransferase 2, mitochondrial (Homo sapiens, UniProt P23786); test: (§1) SUPPLEMENTARY: Inhibition of Carnitine palmitoyltransferase 2
T2 sequence (P23786 whole entry): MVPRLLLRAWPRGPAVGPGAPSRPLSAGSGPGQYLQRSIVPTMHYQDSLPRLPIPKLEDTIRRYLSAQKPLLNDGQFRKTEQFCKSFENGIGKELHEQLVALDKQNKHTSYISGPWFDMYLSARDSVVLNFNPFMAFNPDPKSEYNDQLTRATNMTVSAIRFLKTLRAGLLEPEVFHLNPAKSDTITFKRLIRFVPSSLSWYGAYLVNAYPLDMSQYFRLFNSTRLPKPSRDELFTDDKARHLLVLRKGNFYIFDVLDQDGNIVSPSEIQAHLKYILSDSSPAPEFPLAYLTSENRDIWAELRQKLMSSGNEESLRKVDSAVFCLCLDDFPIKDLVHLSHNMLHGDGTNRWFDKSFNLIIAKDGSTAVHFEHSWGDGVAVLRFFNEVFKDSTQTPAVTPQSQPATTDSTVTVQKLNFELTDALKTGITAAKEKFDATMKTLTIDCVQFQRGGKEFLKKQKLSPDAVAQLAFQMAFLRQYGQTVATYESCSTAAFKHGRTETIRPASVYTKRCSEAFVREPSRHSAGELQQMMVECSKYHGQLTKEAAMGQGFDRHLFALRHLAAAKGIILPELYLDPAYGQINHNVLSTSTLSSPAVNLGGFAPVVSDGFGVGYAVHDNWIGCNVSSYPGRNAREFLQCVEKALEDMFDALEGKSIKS

[3] = molecular target: T3, Carnitine O-palmitoyltransferase 2, mitochondrial (Rattus norvegicus, UniProt P18886); test: as §1
T3 sequence (P18886 whole entry): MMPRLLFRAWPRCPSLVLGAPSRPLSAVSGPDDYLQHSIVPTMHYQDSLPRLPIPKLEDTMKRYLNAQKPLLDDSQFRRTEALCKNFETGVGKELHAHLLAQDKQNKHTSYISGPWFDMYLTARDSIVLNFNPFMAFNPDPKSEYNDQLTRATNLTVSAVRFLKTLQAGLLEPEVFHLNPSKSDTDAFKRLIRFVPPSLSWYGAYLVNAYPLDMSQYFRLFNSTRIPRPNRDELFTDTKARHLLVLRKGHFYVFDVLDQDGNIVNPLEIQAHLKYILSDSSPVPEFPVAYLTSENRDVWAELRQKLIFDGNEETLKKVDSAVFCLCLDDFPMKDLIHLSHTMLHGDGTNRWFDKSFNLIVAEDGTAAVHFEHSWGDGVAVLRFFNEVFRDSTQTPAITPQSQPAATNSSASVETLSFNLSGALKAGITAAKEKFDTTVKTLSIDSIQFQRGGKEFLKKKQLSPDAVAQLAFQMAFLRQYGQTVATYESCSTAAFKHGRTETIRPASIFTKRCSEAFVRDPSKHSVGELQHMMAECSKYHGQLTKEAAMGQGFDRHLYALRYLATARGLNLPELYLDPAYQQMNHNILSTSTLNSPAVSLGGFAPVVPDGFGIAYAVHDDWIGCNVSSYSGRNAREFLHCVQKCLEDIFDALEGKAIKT

[4] = molecular target: T4, Carnitine O-palmitoyltransferase 1, liver isoform (Homo sapiens, UniProt P50416); test: (§2) SUPPLEMENTARY: Inhibition of Carnitine palmitoyltransferase 1, liver isoform
T4 sequence (P50416 whole entry): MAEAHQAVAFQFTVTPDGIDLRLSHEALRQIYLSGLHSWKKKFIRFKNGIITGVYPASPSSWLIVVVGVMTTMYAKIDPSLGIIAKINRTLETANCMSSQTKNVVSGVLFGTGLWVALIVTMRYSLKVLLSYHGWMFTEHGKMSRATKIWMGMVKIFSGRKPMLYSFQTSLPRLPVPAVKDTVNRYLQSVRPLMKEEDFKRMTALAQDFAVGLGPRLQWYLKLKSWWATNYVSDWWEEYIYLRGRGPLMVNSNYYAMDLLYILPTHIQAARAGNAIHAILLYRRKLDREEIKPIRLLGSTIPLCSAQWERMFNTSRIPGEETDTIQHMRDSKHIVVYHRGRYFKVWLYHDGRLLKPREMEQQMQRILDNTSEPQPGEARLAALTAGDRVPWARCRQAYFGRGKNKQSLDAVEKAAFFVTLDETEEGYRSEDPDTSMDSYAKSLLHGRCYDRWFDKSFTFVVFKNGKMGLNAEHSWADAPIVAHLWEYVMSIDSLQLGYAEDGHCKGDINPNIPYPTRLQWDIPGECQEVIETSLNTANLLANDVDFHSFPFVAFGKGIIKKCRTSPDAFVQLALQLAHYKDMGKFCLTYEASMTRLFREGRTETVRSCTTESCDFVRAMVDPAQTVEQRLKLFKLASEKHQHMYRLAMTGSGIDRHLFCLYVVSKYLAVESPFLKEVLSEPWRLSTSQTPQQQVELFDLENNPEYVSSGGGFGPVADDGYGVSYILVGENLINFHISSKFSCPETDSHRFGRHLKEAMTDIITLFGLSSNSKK

[5] = molecular target: T5, Carnitine O-palmitoyltransferase 1, liver isoform (Rattus norvegicus, UniProt P32198); test: as §2
T5 sequence (P32198 whole entry): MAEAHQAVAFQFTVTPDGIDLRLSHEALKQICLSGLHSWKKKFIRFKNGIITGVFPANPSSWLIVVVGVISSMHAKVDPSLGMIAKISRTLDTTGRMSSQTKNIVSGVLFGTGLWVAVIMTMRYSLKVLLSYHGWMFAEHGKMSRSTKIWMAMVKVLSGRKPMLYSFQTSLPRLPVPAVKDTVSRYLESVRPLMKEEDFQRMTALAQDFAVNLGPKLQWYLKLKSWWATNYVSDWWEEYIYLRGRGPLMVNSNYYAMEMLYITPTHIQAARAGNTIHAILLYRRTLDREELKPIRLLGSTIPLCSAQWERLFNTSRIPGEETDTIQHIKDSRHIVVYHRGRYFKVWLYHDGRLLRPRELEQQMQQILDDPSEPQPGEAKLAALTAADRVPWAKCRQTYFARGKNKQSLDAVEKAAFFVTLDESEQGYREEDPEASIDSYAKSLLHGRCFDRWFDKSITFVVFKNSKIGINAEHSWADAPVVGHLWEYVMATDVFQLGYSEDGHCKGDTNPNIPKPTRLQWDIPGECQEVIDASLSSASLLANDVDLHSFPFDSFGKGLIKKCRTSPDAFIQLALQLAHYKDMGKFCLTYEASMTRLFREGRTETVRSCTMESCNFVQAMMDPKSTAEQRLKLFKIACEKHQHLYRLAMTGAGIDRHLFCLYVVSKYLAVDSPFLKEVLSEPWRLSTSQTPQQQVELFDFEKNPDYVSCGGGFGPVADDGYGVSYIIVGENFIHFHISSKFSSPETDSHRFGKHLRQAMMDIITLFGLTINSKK

[6] = SUPPLEMENTARY: Lyophilisation Solubility Assay (LYSA); type: physicochemical; conditions: read-out: Kinetic_solubility
[7] = SUPPLEMENTARY: Lipophilicity (log D) Determination by high-throughput shake-flask; type: physicochemical; conditions: octanol/water
[8] = SUPPLEMENTARY: PAMPA permeability assay; type: physicochemical; conditions: read-out: Permeability

IC50 [1]	IC50 [2]	IC50 [3]	IC50 [4]	IC50 [5]	solubility kinetic [6]	logD [7]	Papp [8]	SMILES
1.16 µM	28.4 µM	67.5 µM	0.0515 µM	0.0625 µM	399 µg/mL (≈ 739 µM)	-0.12	2.43 ×10⁻⁶ cm/s	COc1ccc(Cl)cc1S(=O)(=O)N(C)c1cc(C(=O)Nc2nc(CC(=O)O)cs2)cc2c1OCO2
> 100 µM	> 100 µM	> 100 µM	0.221 µM	0.339 µM	< 1 µg/mL	3.58	1.31 ×10⁻⁶ cm/s	CCOC(=O)C1CN(S(=O)(=O)c2cc(Cl)ccc2OC)c2cc(C(=O)Nc3cccc(F)c3)ccc2O1 (configuration not stated)
93.6 µM	> 100 µM	> 100 µM	0.0935 µM	1.49 µM	> 461 µg/mL	0.99	1.92 ×10⁻⁶ cm/s	O=C(O)c1cccc(-c2noc([C@H]3CCCCN3C(=O)COc3ccccc3)n2)c1
> 100 µM	> 100 µM	> 100 µM	0.221 µM	0.225 µM	22 µg/mL (≈ 62.3 µM)	2.22	5.94 ×10⁻⁶ cm/s	O=C(COc1ccccc1)N1CCCC[C@@H]1c1noc(-c2cc[nH]n2)n1
3.56 µM	74.4 µM	> 100 µM	0.252 µM	0.154 µM	238 µg/mL (≈ 408 µM)	2.57	1.16 ×10⁻⁶ cm/s	COCCN(c1cc(C(=O)Nc2nc(CC(=O)O)cs2)cc2c1OCO2)S(=O)(=O)c1cc(Cl)ccc1OC
30.2 µM	1.82 µM	1.35 µM	0.122 µM	0.568 µM	310 µg/mL (≈ 629 µM)	1.62	0.841 ×10⁻⁶ cm/s	Cc1cc(C(=O)Nc2ccc(C(=O)O)cc2)cc(S(=O)(=O)Nc2cccc(C(F)(F)F)c2)c1C
1.09 µM	78.5 µM	> 100 µM	0.122 µM	0.1 µM	44 µg/mL (≈ 79.8 µM)	0.88	3.23 ×10⁻⁶ cm/s	COc1ccc(Cl)cc1S(=O)(=O)N1CCOc2c(Cl)cc(C(=O)Nc3ccc(CC(=O)O)cc3)cc21
> 100 µM	> 100 µM	> 100 µM	0.0635 µM	1.07 µM	5 µg/mL (≈ 11.2 µM)	3.04	2.35 ×10⁻⁶ cm/s	NC(=O)c1n[nH]c2cc(-c3noc([C@H]4CCCCN4C(=O)COc4ccccc4)n3)ccc12
> 100 µM	6.6 µM	71 µM	0.197 µM	0.2 µM	8 µg/mL (≈ 18.5 µM)	3.38	2.21 ×10⁻⁶ cm/s	O=C(COc1ccccc1)N1CCCC[C@@H]1c1noc(-c2ccc(C(F)(F)F)nc2)n1
0.62 µM	> 100 µM	> 100 µM	0.0884 µM	0.0989 µM	144 µg/mL (≈ 260 µM)	2.74	3.22 ×10⁻⁶ cm/s	CCN(c1cc(C(=O)Nc2ncc(CC(=O)O)s2)cc2c1OCO2)S(=O)(=O)c1cc(Cl)ccc1OC
3.65 µM	> 100 µM	> 100 µM	0.272 µM	0.206 µM	502 µg/mL (≈ 946 µM)	0.68	2.08 ×10⁻⁶ cm/s	COc1ccc(Cl)cc1S(=O)(=O)N1CCOc2c(C)cc(C(=O)Nc3ccc(CC(=O)O)cc3)cc21
1.31 µM	0.686 µM	1.63 µM	0.19 µM	0.063 µM	528 µg/mL (≈ 986 µM)	0.57	1.77 ×10⁻⁶ cm/s	COc1ccc(Cl)cc1S(=O)(=O)N1CC(C)c2ccc(C(=O)Nc3ccc(C(=O)O)c(Cl)c3)cc21 (configuration not stated)
> 100 µM	> 100 µM	> 100 µM	0.0959 µM	0.102 µM	13 µg/mL (≈ 31.1 µM)	2.63	1.46 ×10⁻⁶ cm/s	O=C1Cc2ccc(-c3noc([C@H]4CCCCN4C(=O)COc4ccccc4)n3)cc2N1
26.5 µM	2.29 µM	3.28 µM	0.0167 µM	0.0097 µM	1 µg/mL (≈ 2.2 µM)	2.99	0.6 ×10⁻⁶ cm/s	O=C(O)c1ccc(NC(=O)c2ccc3ccn(S(=O)(=O)c4cccc(Cl)c4)c3c2)cc1
